# Laboratory results reported in ChEMBL document CHEMBL1141930, “N-methylsansalvamide a peptide analogues. Potent new antitumor agents” (J Med Chem, 2005).
# Calls of active or inactive are those of the source. The rule behind the calls is not given here. Where a SMILES comes first, the peptide text is derived from it. [ ]: non-standard residue; d: D form. NMePhe(4-Br) = CN[C@@H](Cc1ccc(Br)cc1)C(=O)O; Phe(4-Br) = N[C@@H](Cc1ccc(Br)cc1)C(=O)O; NMeF = CN[C@@H](Cc1ccccc1)C(=O)O; Hica(2S) = CC(C)C[C@H](O)C(=O)O; NMeL = CN[C@@H](CC(C)C)C(=O)O; NMeV = CN[C@H](C(=O)O)C(C)C
# Legend:
# MDA-MB-231 [1] = assay: Inhibitory activity against MDA-MB-231 human […] cancer cells; demonstarted good activity; type: functional, cell-based
# Cancer cell lines [2] = assay: Inhibitory activity against AsPC-1 human pancreatic cancer cells; demonstarted good activity; type: functional, cell-based
# PC-3 [3] = assay: Inhibitory activity against PC-3 human prostate cancer cells; demonstarted good activity; type: functional, cell-based
# Cancer cell lines [4] = assay: Inhibitory activity against S2-013 human pancreatic cancer cells; demonstarted good activity; type: functional, cell-based
# WM-115 [5] = assay: Concentration at which the compound exibit good activity WM-115 human melanoma cells; type: functional, cell-based
# MDA-MB-231 [6] = assay: Effect of N-methylation in MDA-MB-231 human […] cancer cells; exibit less potency; type: functional, cell-based
# PC-3 [7] = assay: Effect of N-methylation in PC-3 human prostate cancer cells; exhibited lowest activity; type: functional, cell-based
# WM-115 [8] = assay: Potency against human WM-115 cells; exhibited average potency; type: functional, cell-based
# PC-3 [9] = assay: Effect of N-methylation in PC-3 human prostate cancer cells; type: functional, cell-based
# MDA-MB-231 [10] = assay: Inhibitory activity against MDA-MB-231 cells; demonstarted high activity; type: functional, cell-based; settings: Homo sapiens
# MDA-MB-231 [11] = assay: Inhibitory activity against MDA-MB-231 cells; exhibited moderate activity; type: functional, cell-based; settings: Homo sapiens
# PC-3 [12] = assay: Concentration at which the compound exibit more potency against PC-3 human prostate cancer cells; type: functional, cell-based
# MDA-MB-231 [13] = assay: Concentration at which the compound exibit more potency against MDA-MB-231 human […] cancer cells; type: functional, cell-based
# Cancer cell lines [14] = assay: Concentration at which the compound exibit more potency agains AsPC-1 human pancreatic cancer cells; type: functional, cell-based
# PC-3 [15] = assay: Effective concentration against PC-3 human prostate cancer cells; type: functional, cell-based
# Cancer cell lines [16] = assay: Potency exhibited by the compound against well-differentiated S2-013 human pancreatic cancer cell line; much more potent; type: functional, cell-based
# MDA-MB-231 [17] = assay: Effect of N-methylation in MDA-MB-231 human […] cancer cells; exibit high potency; type: functional, cell-based
# PC-3 [18] = assay: Effect of N-methylation in PC-3 human prostate cancer cells; exhibited more potency; type: functional, cell-based
# [19] = Mean inhibitory concentration against cancer cell lines; type: functional, cell-based, Homo sapiens
structure (smiles),measurement,setting,value
CC(C)C[C@@H]1NC(=O)[C@H](CC(C)C)NC(=O)[C@H](Cc2ccc(Br)cc2)N(C)C(=O)[C@H](CC(C)C)NC(=O)[C@H](C(C)C)NC1=O (cyclo([NMePhe(4-Br)]LLVL)),Activity,MDA-MB-231 [1],Active
same,Activity,Cancer cell lines [2],Active
same,Activity,PC-3 [3],Active
same,Activity,Cancer cell lines [4],Active
same,Concentration,WM-115 [5],10 µM
CC(C)C[C@@H]1NC(=O)[C@H](C(C)C)NC(=O)[C@H](CC(C)C)N(C)C(=O)[C@H](CC(C)C)NC(=O)[C@H](Cc2ccccc2)NC1=O (cyclo(FL[NMeL]VL)),Activity,MDA-MB-231 [6],Potent
CC(C)C[C@@H]1NC(=O)[C@H](Cc2ccccc2)NC(=O)[C@H](CC(C)C)NC(=O)[C@H](C(C)C)NC(=O)[C@H](CC(C)C)NC1=O (cyclo(FLLVL)),Activity,PC-3 [7],Not Very Active
same,Activity,WM-115 [8],Active
same,Activity,MDA-MB-231 [6],Potent
CC(C)C[C@@H]1NC(=O)[C@H](CC(C)C)NC(=O)[C@H](Cc2ccccc2)N(C)C(=O)[C@H](CC(C)C)NC(=O)[C@H](C(C)C)NC1=O (cyclo([NMeF]LLVL)),Activity,PC-3 [9],Not Very Active
same,Activity,MDA-MB-231 [6],Potent
CC(C)C[C@@H]1NC(=O)[C@H](C(C)C)NC(=O)[C@H](CC(C)C)N(C)C(=O)[C@H](CC(C)C)NC(=O)[C@H](Cc2ccc(Br)cc2)NC1=O (cyclo([Phe(4-Br)]L[NMeL]VL)),Activity,PC-3 [9],Not Very Active
same,Activity,MDA-MB-231 [10],Active
same,Activity,MDA-MB-231 [6],Potent
CC(C)C[C@@H]1NC(=O)[C@H](Cc2ccccc2)NC(=O)[C@H](CC(C)C)NC(=O)[C@H](C(C)C)N(C)C(=O)[C@H](CC(C)C)NC1=O (cyclo(FLL[NMeV]L)),Activity,MDA-MB-231 [11],Active
CC(C)C[C@@H]1NC(=O)[C@H](C(C)C)NC(=O)[C@H](CC(C)C)NC(=O)[C@H](CC(C)C)N(C)C(=O)[C@H](Cc2ccccc2)NC1=O (cyclo(F[NMeL]LVL)),Activity,PC-3 [9],Not Very Active
same,Activity,MDA-MB-231 [6],Potent
CC(C)C[C@@H]1NC(=O)[C@H](Cc2ccc(Br)cc2)NC(=O)[C@H](CC(C)C)N(C)C(=O)[C@H](C(C)C)NC(=O)[C@H](CC(C)C)NC1=O (cyclo([Phe(4-Br)]LLV[NMeL])),Concentration,PC-3 [12],10 µM
same,Concentration,MDA-MB-231 [13],10 µM
same,Concentration,Cancer cell lines [14],10 µM
same,Activity,Cancer cell lines [4],Active
same,Concentration,WM-115 [5],10 µM
CC(C)C[C@@H]1NC(=O)[C@H](C(C)C)NC(=O)[C@H](CC(C)C)NC(=O)[C@H](CC(C)C)N(C)C(=O)[C@H](Cc2ccc(Br)cc2)NC1=O (cyclo([Phe(4-Br)][NMeL]LVL)),EC50,PC-3 [15],7.5 µM
same,Activity,Cancer cell lines [2],Active
same,Concentration,PC-3 [12],10 µM
same,Concentration,MDA-MB-231 [13],10 µM
same,Activity,Cancer cell lines [16],Active
CC(C)C[C@@H]1NC(=O)[C@H](Cc2ccccc2)NC(=O)[C@H](CC(C)C)N(C)C(=O)[C@H](C(C)C)NC(=O)[C@H](CC(C)C)NC1=O (cyclo(FLLV[NMeL])),Activity,MDA-MB-231 [11],Active
CC(C)C[C@@H]1NC(=O)[C@H](Cc2ccc(Br)cc2)NC(=O)[C@H](CC(C)C)NC(=O)[C@H](C(C)C)NC(=O)[C@H](CC(C)C)NC1=O (cyclo([Phe(4-Br)]LLVL)),Activity,MDA-MB-231 [17],Potent
same,Activity,PC-3 [18],More potent
CC(C)C[C@@H]1NC(=O)[C@H](C(C)C)NC(=O)[C@H](CC(C)C)OC(=O)[C@H](CC(C)C)NC(=O)[C@H](Cc2ccccc2)NC1=O (cyclo(FL[Hica(2S)]VL)),IC50,[19],27.4 µg/mL
CC(C)C[C@@H]1NC(=O)[C@H](Cc2ccc(Br)cc2)NC(=O)[C@H](CC(C)C)NC(=O)[C@H](C(C)C)N(C)C(=O)[C@H](CC(C)C)NC1=O (cyclo([Phe(4-Br)]LL[NMeV]L)),Activity,MDA-MB-231 [11],Active
